Experimental data taken from patent US12344603B2 (Genentech, Inc., priority 2020, dated 2025).
Structures can show the parent of a compound that is named as a salt.

What follows are molecules tested against IRE1α (Homo sapiens (Human), UniProt O75460, D688N) (assay: IRE1α TR-FRET competition binding assay (IRE1α HTRF)). Settings: TR-FRET competition binding to kinase domain of IRE1α.
IRE1α, sequence (O75460 547-977 D688N): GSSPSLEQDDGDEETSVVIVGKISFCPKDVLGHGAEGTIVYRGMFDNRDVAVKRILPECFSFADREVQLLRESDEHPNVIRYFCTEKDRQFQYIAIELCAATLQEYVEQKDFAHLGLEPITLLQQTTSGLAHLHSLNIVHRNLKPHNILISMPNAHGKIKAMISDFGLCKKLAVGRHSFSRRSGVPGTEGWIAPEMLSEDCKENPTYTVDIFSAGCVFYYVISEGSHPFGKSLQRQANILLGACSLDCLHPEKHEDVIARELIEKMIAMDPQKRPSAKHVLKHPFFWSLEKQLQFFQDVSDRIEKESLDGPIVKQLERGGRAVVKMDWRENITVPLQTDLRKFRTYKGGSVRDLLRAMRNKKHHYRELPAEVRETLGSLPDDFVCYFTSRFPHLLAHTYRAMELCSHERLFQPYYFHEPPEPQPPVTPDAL
Protocol: IRE1α TR-FRET Competition Binding Assay. The affinity of compound binding to the kinase domain of IRE1α was determined using a time-resolved fluorescence resonance energy transfer (TR-FRET) competition assay.
The purified protein (final concentration 0.25 nM) was pre-incubated with anti-His Europium labeled antibody (Life Technologies PV5596, final concentration 2 nM) for one hour at 4° C. in TR-FRET Assay Buffer (50 mM HEPES, pH 7.5, 10 mM MgCl2, 0.083 mM Brij 35, 1 mM DTT, and 0.1% bovine gamma globulin) prior to addition to test compounds. An Alexa fluor 647-labeled probe based on an ATP competitive inhibitor was added to a final concentration of 2 nM. Reactions were carried out for one hour at room temperature in a final volume of 20 μL in 384 well white ProxiPlates (Perkin Elmer 6008289). Binding of the probe to the IRE1α protein was detected in an Envision instrument (PerkinElmer) equipped with a TRF laser option and a LANCE/Delfia Dual/Bias D400/D630 mirror (Ex 347 nm, 1st Em 665 nm, 2nd Em 615 nm).
For `CC(C)n1c(=O)c(-c2ccc(NS(=O)(=O)CCC(C)(F)F)nc2)nc2cnc(N[C@H]3CC[C@H](N(C)C)CC3)nc21` [Example 238, N-[5-[2-[[4-(Dimethylamino)cyclohexyl]amino]-8-isopropyl-7-oxo-pteridin-6-yl]-2-pyridyl]-3,3-difluoro-butane-1-sulfonamide], the IC50 was 0.4 nM. Work on `CC(C)n1c(=O)c(-c2ccc(NS(=O)(=O)CCC(F)(F)F)c(F)c2)cc2cnc(N[C@H]3CC[C@H](N4CCCC4)CC3)nc21` [Compound 199, 3,3,3-Trifluoro-N-(2-fluoro-4-(8-isopropyl-7-oxo-2-(((1,4-trans)-4-(pyrrolidin-1-yl)cyclohexyl)amino)-7,8-dihydropyrido[2,3-d]pyrimidin-6-yl)phenyl)propane-1-sulfonamide] yielded an IC50 of 0.25 nM. For `CC(C)n1c(=O)c(-c2ccc(NS(=O)(=O)Cc3ccccc3)nc2)nc2cnc(N[C@@H]3CNC[C@@H](F)C3)nc21` [Example 236, N-[5-[2-[[(3S,5S)-5-fluoro-3-piperidyl]amino]-8-isopropyl-7-oxo-pteridin-6-yl]-2-pyridyl]-1-phenyl-methanesulfonamide], the IC50 was 0.5 nM. Molecule `CC(C)n1c(=O)c(-c2cc(F)c(NC(=O)[C@@H]3C[C@@H]3F)c(F)c2F)cc2cnc(N[C@H]3CC[C@H](N(C)C)CC3)nc21` [Compound 96, (1S,2S)—N-(4-(2-(((r,4r)-4-(dimethylamino)cyclohexyl)amino)-8-isopropyl-7-oxo-7,8-dihydropyrido[2,3-d]pyrimidin-6-yl)-2,3,6-trifluorophenyl)-2-fluorocyclopropane-1-carboxamide] has an IC50 of 1.6 nM. In the case of `CC(C)n1c(=O)c(-c2ccc(NS(=O)(=O)CCC(F)(F)F)nc2)cc2cnc(N[C@H]3CC[C@H](N(C)C)CC3)nc21` [Example 215, N-(5-(2-(((1r,4r)-4-(dimethylamino)cyclo-hexyl)amino)-8-isopropyl-7-oxo-7,8-dihydropyrido[2,3-d]-pyrimidin-6-yl)pyridin-2-yl)-3,3,3-trifluoro-propane-1-sulfonamide], the IC50 is reported as 0.3 nM. For `CC(C)n1c(=O)c(-c2ccc(NS(=O)(=O)CC3CC4(CCC4)C3)c(F)c2)nc2cnc(N[C@H]3CC[C@H](N(C)C)CC3)nc21` [Example 260, N-[4-[2-[[4-(Dimethylamino)cyclohexyl]amino]-8-isopropyl-7-oxo-pteridin-6-yl]-2-fluoro-phenyl]-1-spiro[3.3]heptan-2-yl-methanesulfonamide], the IC50 was 0.2 nM. `CC(C)n1c(=O)c(-c2ccc(NS(=O)(=O)CC3CC(F)(F)C3)c(F)c2)nc2cnc(N[C@H]3CC[C@H](N(C)C)[C@@H](F)C3)nc21` (stereo in doubt) [Compound 193A, 1-(3,3-Difluorocyclobutyl)-N-(4-(2-((4-(dimethylamino)-3-fluorocyclohexyl)amino)-8-isopropyl-7-oxo-7,8-dihydropteridin-6-yl)-2-fluorophenyl)methanesulfonamide] gave an IC50 of 0.2 nM. `CC(C)n1c(=O)c(-c2c(F)cc(NS(=O)(=O)CCC(F)(F)F)c(F)c2F)nc2cnc(N[C@H]3CC[C@H](N(C)C)CC3)nc21` [Compound 172, N-(4-(2-(((1r,4r)-4-(Dimethylamino)cyclohexyl)amino)-8-isopropyl-7-oxo-7,8-dihydropteridin-6-yl)-2,3,5-trifluorophenyl)-3,3,3-trifluoropropane-1-sulfonamide hydrochloride] showed an IC50 of 0.35 nM. `COCCN(C)[C@H]1CC[C@H](Nc2ncc3cc(-c4cc(F)c(NS(=O)(=O)Cc5ccc(F)cc5)c(F)c4)c(=O)n(C(C)C)c3n2)CC1` [Compound 122, N-(2,6-Difluoro-4-(8-isopropyl-2-(((1r,4r)-4-((2-methoxyethyl)(methyl)amino)cyclohexyl)amino)-7-oxo-7,8-dihydropyrido[2,3-d]pyrimidin-6-yl)phenyl)-1-(4-fluorophenyl)methanesulfonamide] gave an IC50 of 0.12 nM. Work on `CC(C)n1c(=O)c(-c2ccc(NS(=O)(=O)c3cccnc3)c(F)c2)nc2cnc(N[C@H]3CC[C@H](N(C)C)CC3)nc21` [Compound 191, N-(4-(2-(((1r,4r)-4-(Dimethylamino)cyclohexyl)amino)-8-isopropyl-7-oxo-7,8-dihydropteridin-6-yl)-2-fluorophenyl)pyridine-3-sulfonamide hydrochloride] yielded an IC50 of 0.25 nM. `CC(C)n1c(=O)c(-c2ccc(NS(=O)(=O)CCC(F)(F)F)nc2)cc2cnc(N[C@@H]3CNC[C@@H](F)C3)nc21` [Example 216, 3,3,3-trifluoro-N-(5-(2-(((3S,5S)-5-fluoro-piperidin-3-yl)amino)-8-isopropyl-7-oxo-7,8-dihydropyrido[2,3-d]-pyrimidin-6-yl)pyridin-2-yl)propane-1-sulfon-amide] gave an IC50 of 1.7 nM. `COc1ccc(Cl)cc1CS(=O)(=O)Nc1c(F)cc(-c2cc3cnc(N[C@@H]4CNC[C@@H](F)C4)nc3n(C(C)C)c2=O)c(F)c1F` [Compound 97, 1-(5-Chloro-2-methoxyphenyl)-N-(2,3,6-trifluoro-4-(2-(((3S,5S)-5-fluoropiperidin-3-yl)amino)-8-isopropyl-7-oxo-7,8-dihydropyrido[2,3-d]pyrimidin-6-yl)phenyl)methanesulfonamide hydrochloride] gave an IC50 of 0.27 nM. `CC(C)n1c(=O)c(-c2cc(F)c(NS(=O)(=O)c3ccccc3)c(F)c2F)cc2cnc(N[C@@H]3CNC[C@@H](F)C3)nc21` [Compound 54, N-(2,3,6-Trifluoro-4-(2-(((3S,5S)-5-fluoropiperidin-3-yl)amino)-8-isopropyl-7-oxo-7,8-dihydropyrido[2,3-d]pyrimidin-6-yl)phenyl)benzenesulfonamide] was tested, and the IC50 was 0.34 nM. In the case of `CC(C)n1c(=O)c(-c2cc(F)c(NC(=O)C3CC3F)c(F)c2F)cc2cnc(N[C@H]3CC[C@H](N(C)C)CC3)nc21` (single isomer, unassigned) [Compound 98B, N-(4-(2-(((1r,4r)-4-(Dimethylamino)cyclohexyl)amino)-8-isopropyl-7-oxo-7,8-dihydropyrido[2,3-d]pyrimidin-6-yl)-2,3,6-trifluorophenyl)-2-fluorocyclopropane-1-carboxamide], the IC50 is reported as 2.2 nM. In the case of `COCCN(C)C1CCC(Nc2ncc3cc(-c4cc(F)c(NS(=O)(=O)Cc5ccccc5)c(F)c4F)c(=O)n(C(C)C)c3n2)CC1` (single isomer, unassigned) [Compound 102A, 1-Phenyl-N-(2,3,6-trifluoro-4-(8-isopropyl-2-((4-((2-methoxyethyl)(methyl)amino)cyclohexyl)amino)-7-oxo-7,8-dihydropyrido[2,3-d]pyrimidin-6-yl)phenyl)methanesulfonamide], the IC50 is reported as 0.16 nM. With `CC(C)n1c(=O)c(-c2ccc(NS(=O)(=O)Cc3ccc(F)cc3)c(F)c2)cc2cnc(N[C@H]3CC[C@H](N(C)CCF)CC3)nc21` [Compound 155, N-(2-Fluoro-4-(2-(((1r,4r)-4-((2-fluoroethyl)(methyl)amino)cyclohexyl)amino)-8-isopropyl-7-oxo-7,8-dihydropyrido[2,3-d]pyrimidin-6-yl)phenyl)-1-(4-fluorophenyl)methanesulfonamide] the IC50 was 0.23 nM. `CC(C)n1c(=O)c(-c2cc(F)c(NS(=O)(=O)Cc3ccccc3)c(F)c2F)cc2cnc(N[C@H]3CC[C@H](N(C)C)CC3)nc21` [Compound 24, N-(4-(2-(((1r,4r)-4-(Dimethylamino)cyclohexyl)amino)-8-isopropyl-7-oxo-7,8-dihydropyrido[2,3-d]pyrimidin-6-yl)-2,3,6-trifluorophenyl)-1-phenylmethanesulfonamide] showed an IC50 of 2.7 nM. `CCC(F)(F)CS(=O)(=O)Nc1c(F)cc(-c2cc3cnc(N[C@H]4CC[C@H](N(C)C)CC4)nc3n(C(C)C)c2=O)c(F)c1F` [Compound 36, N-(4-(2-(((1r,4r)-4-(Dimethylamino)cyclohexyl)amino)-8-isopropyl-7-oxo-7,8-dihydropyrido[2,3-d]pyrimidin-6-yl)-2,3,6-trifluorophenyl)-2,2-difluorobutane-1-sulfonamide] showed an IC50 of 0.18 nM. `CC(C)n1c(=O)c(-c2ccc(NS(=O)(=O)CC3CCCCC3)c(F)c2)nc2cnc(N[C@H]3CC[C@H](N(C)C)CC3)nc21` [Example 269, 1-Cyclohexyl-N-[4-[2-[[4-(dimethylamino)cyclohexyl]amino]-8-isopropyl-7-oxo-pteridin-6-yl]-2-fluoro-phenyl]methanesulfonamide] gave an IC50 of 0.2 nM. With `CC(C)n1c(=O)c(-c2ccc(NS(=O)(=O)Cc3ccccc3)c(F)c2)nc2cnc(N[C@@H]3CNC[C@@](C)(F)C3)nc21` [Compound 64, N-(2-Fluoro-4-(2-(((3S,5S)-5-fluoro-5-methylpiperidin-3-yl)amino)-8-isopropyl-7-oxo-7,8-dihydropteridin-6-yl)phenyl)-1-phenylmethanesulfonamide] the IC50 was 0.21 nM. `CC(C)n1c(=O)c(-c2ccc(NS(=O)(=O)c3ccccc3Cl)c(F)c2)nc2cnc(N[C@H]3CC[C@H](N(C)C)CC3)nc21` [Compound 167, 2-Chloro-N-(4-(2-(((1r,4r)-4-(dimethylamino)cyclohexyl)amino)-8-isopropyl-7-oxo-7,8-dihydropteridin-6-yl)-2-fluorophenyl)benzenesulfonamide] gave an IC50 of 0.18 nM. `CC(C)n1c(=O)c(-c2ccc(NS(=O)(=O)CCC(F)(F)F)c(F)c2)cc2cnc(N[C@H]3CC[C@H](N(C)CCF)CC3)nc21` [Compound 157, 3,3,3-trifluoro-N-(2-Fluoro-4-(2-(((1r,4r)-4-((2-fluoroethyl)(methyl)amino)cyclohexyl)amino)-8-isopropyl-7-oxo-7,8-dihydropyrido[2,3-d]pyrimidin-6-yl)phenyl)propane-1-sulfonamide] showed an IC50 of 0.14 nM.
